Source: US8481489B2, “GH secretagogues and uses thereof” (Theratechnologies Inc., priority 2003, dated 2013)
Several values for one entry are separate records, joined by “and”; a condition that tells them apart may be missing. Identical values can stand only once. Entries after “also recorded” stand apart in the source; their conditions may differ. Like-named read-outs stand apart in the source and are kept apart here. Marks after values point to notes of the source that are not given here.

Columns and labels:
[1] = test system: HIV-infected patients with abdominal fat accumulation; experiment: Bone turnover markers (osteocalcin, NTX), HIV lipodystrophy study; conditions: for NTX, Δ / Osteocalcin, Δ: change from baseline, Week 12, mean (SD)
Procedure: (§2) Design: Randomized, placebo-controlled, multi-center, dose ranging (placebo, 1 mg or 2 mg SC QD), parallel group, 12-week study
(§3) Biochemical parameters including insulin-like growth factor-I, glucose, insulin, lipid profile (cholesterol, HDL, LDL, triglyceride, non HDL and the ratio of cholesterol:HDL), free fatty acids, HbA1C, IGFBP-3, and bone markers (serum osteocalcin and NTX-1), CD4, viral load, and a pregnancy test for female subjects were determined in the fasting state.
(§4) Clinical laboratory testing was performed by a central lab. […] NTX (N-terminal telopeptide of type I collagen; a bone resorption marker) was measured by ELISA using a commercially available kit (Osteomark™, Ostex International Inc., Seattle, Wash.). Osteocalcin was measured using a commercially available enzymatic immunoassay kit (Metra™ osteocalcin, Quidel Corporation, San Diego, Calif.). CD4 and viral load were performed by the individual site labs by routine methodology.

IGF-1 [2] = conditions: daily 1 and 2 mg doses; reference (14); cited from earlier work
IGF-1 [3] = experiment: IGF-1 levels in type II diabetic patients; assay type: in vivo, human; conditions: end of 12-week treatment period
Procedure: A double-blind placebo-controlled study was conducted in 53 type II diabetic patients (age=61±7 [SD]; 34% female) on stable antidiabetic medication (26% on insulin). Patients were randomized to parallel groups to receive daily subcutaneous administration of a placebo, 1 mg or 2 mg TH9507, respectively.

[4] = test system: HIV-infected patients with abdominal fat accumulation; conditions: for CD4, Δ: change from baseline, Week 12, mean (SD)
Procedure: as §2, §3, §4

[5] = test system: type II diabetic patients; conditions: patients with Type II DM, daily dose up to 2 mg; reference (15); cited from earlier work
[6] = test system: A/New Caledonia/20/99, A/Panama/2007/99, B/Victoria/504/2000 antigens; experiment: Influenza antibody titers by hemaglutination inhibition assay in elderly subjects; assay type: in vivo, human
[7] = test system: HIV-infected patients with abdominal fat accumulation; conditions: change from baseline, Week 12, mean (SD)
Procedure: as §2
(§5) At the baseline visit, anthropometric measurements were obtained. […] Biochemical parameters including insulin-like growth factor-I, glucose, insulin, lipid profile (cholesterol, HDL, LDL, triglyceride, non HDL and the ratio of cholesterol:HDL), free fatty acids, HbA1C, IGFBP-3, and bone markers (serum osteocalcin and NTX-1), CD4, viral load, and a pregnancy test for female subjects were determined in the fasting state. In addition, insulin and glucose response to a 75 gram standard glucose challenge were assessed and a quality of life questionnaire was administered.
(§6) Clinical laboratory testing was performed by a central lab. Serum IGF-1 was measured after acid-ethanol extraction using the Esoterix RIA kit (Esoterix Inc., Calabasas Hill, Calif.), with a sensitivity of 10 ng/mL. Intra- and inter-assay coefficients of variation were 4.6-20% and 9-10%, respectively. Serum IGFBP-3 was measured using the Esoterix RIA kit (Esoterix Inc., Calabasas Hill, Calif.) with a sensitivity of 0.3 mg/mL. Intra- and inter-assay coefficients of variation were 5.1-13% and 5.5-17%, respectively. HDL, LDL, total cholesterol, triglycerides and FFA were determined by enzymatic calorimetric assay. Glucose was measured by enzymatric test (Gluco-Quant®, Roche diagnostics, Indianapolis, Ind.). HbA1c was determined by chromatography.
(§7) Other endpoints included IGF-I, lipid parameters, glucose and insulin, CD4, viral load, bone markers, and quality of life. A sample size of 20 patients/group was planned to assess a statistically significant change of 10% or more in intra-group analyses. The planned dropout rate was 25% and therefore 60 patients were enrolled into the study. Baseline data are compared between the groups by F-test based on ANOVA for continuous variables and Chi-Square test for categorical variables. Change over time between groups is compared by ANOVA or the Chi-Square test. Where appropriate, data were rank transformed prior to analysis. Changes within each group are determined by t-test. The ITT (intent to treat) population is defined as all subjects who received at least one dose of the study treatment. Descriptive statistics and analyses for all efficacy and safety analyses are performed on the ITT population. End of study, 12 week, data are used to calculate changes in body composition. For biochemical indices, the last observation available is used to calculate change. Imputation for missing data is not performed. For body composition, end of study data are used to calculate change. Interim analyses were not performed. Results are mean (SD) unless otherwise noted. All statistical tests were performed with a two-sided Type I error level of 0.05.

IGF-1 and IGFBP-3 [8] = experiment: Serum IGF-1 and IGFBP-3 (RIA), HIV lipodystrophy study; conditions: change from baseline, Week 12, mean (SD)
Procedure: as §2, §5, §6, §7

IGF-1 and IGFBP-3 [9] = experiment: Circulating IGF-1 and IGFBP-3 levels, insomnia study; assay type: in vivo, human; conditions: week 2
[10] = test system: HIV-infected patients with abdominal fat accumulation; experiment: Lipid parameters, HIV lipodystrophy study; conditions: mean (SD); for Chol:HDL, Δ / HDL, Δ / LDL, Δ / NONHDL Cholesterol, Δ / Total Cholesterol, Δ / Triglycerides, Δ: change from baseline, Week 12; for Triglyceride levels change / ratio of cholesterol to HDL change: last observation values
Procedure: as §2, §5, §6, §7

[11] = TH9507 PK profile, 7-day study in healthy men; assay type: in vivo, human
Procedure: (§1) The study used a randomized, double-blind, placebo-controlled design and was conducted in healthy men, aged 50 to 60 years old. Subjects (8 per group) were injected S.C. once a day for 7 consecutive days with placebo, 0.5, 1 or 2 mg of TH9507. Circulating IGF-1 levels were measured on Days 1 to 7. The 12 hour GH response and TH9507 PK profile were determined on Day 1 and 7.

[12] = test system: patients exhibiting sleep maintenance insomnia; experiment: Continuous Performance Test (CPT), 14-day study in sleep maintenance insomnia; assay type: in vivo, human; conditions: 14 days
Procedure: Patients were selected based on the Pittsburgh Sleep Quality Index (Score ≧5), the Walters Criteria for Sleep Maintenance Insomnia, and the Beck Questionnaire (Score ≦17). The primary exclusion criteria were other primary sleep disorders and the use of any products affecting sleep or vigilance in the 30 days prior to entering the study.
The study was a randomized, double-blind, placebo-controlled, parallel group and multicenter evaluation of two doses of TH9507 (0.1 mg and 1 mg) administered daily by subcutaneous injection at bedtime for 14 consecutive days. To evaluate vigilance and the performance in the morning, patients underwent a battery of cognitive tests including the Continuous Performance Test (CPT) at baseline and at the end of treatment period.
The CPT has been described in the literature as a measure of consistency in responding and ability to sustain attention over time (Aleman A, et al., J Clin Endocrinol Metab 1999 84(2):471-475). This test required subjects to press space bar each time the letter “A” was followed by “X”. Omission and commission errors, and Mean Reaction Time of correct responses were analyzed.

IGF-1 [13] = experiment: Circulating IGF-1 levels, 7-day administration in healthy middle-aged men; assay type: in vivo, human; conditions: for IGF-1 increase over baseline values / IGF-1 levels reached: 7 days
Procedure: as §1

[14] = test system: HIV-infected patients with abdominal fat accumulation; experiment: Abdominal VAT and SAT by cross-sectional CT, HIV lipodystrophy study; conditions: for SAT, Δ / VAT, Δ: change from baseline, Week 12, mean (SD)
Procedure: as §2
Patients: 61 HIV-infected patients (BMI 28±3 [SD] kg/m^2, 28% diabetic or glucose intolerant) with increased waist circumference (102 cm±8 [SD]) and waist/hip (1.0±0.1 [SD])
At the baseline visit, anthropometric measurements were obtained. Total body lean and fat mass as well as regional fat mass in the trunk and extremities were assessed by DEXA. Abdominal subcutaneous and visceral fat area and the ratio of VAT to SAT were determined by cross-sectional CT at L4-L5.
Whole body and regional DEXA (dual energy X-ray absorptiometry) and cross-sectional abdominal CT scans were performed at the individual study sites based on previously established protocols and were standardized across sites. Digitized images were sent to a central reading center, St. Lukes Roosevelt Hospital, for analysis by independent experts without knowledge of treatment assignment. Each site was given a procedure manual to follow in obtaining the body composition data and was certified in the proper technique. For the CT scans, parameters were standardized as follows: Tube Voltage=120 kV, Tube Current=250 mA, Exposure=375 mAs, matrix 512×512. DFOV was set to include the entire slice into the field of view. For the DEXA scans total body scans were performed with analysis of lean body mass, total fat mass, and regional fat mass in the trunk and extremities as previously described (16).
Body composition endpoints included trunk fat and trunk to limb fat ratio by DEXA and VAT and VAT:SAT by CT scan. […] Baseline data are compared between the groups by F-test based on ANOVA for continuous variables and Chi-Square test for categorical variables. Change over time between groups is compared by ANOVA or the Chi-Square test. Where appropriate, data were rank transformed prior to analysis. Changes within each group are determined by t-test. The ITT (intent to treat) population is defined as all subjects who received at least one dose of the study treatment. Descriptive statistics and analyses for all efficacy and safety analyses are performed on the ITT population. End of study, 12 week, data are used to calculate changes in body composition. […] Imputation for missing data is not performed. For body composition, end of study data are used to calculate change. […] Results are mean (SD) unless otherwise noted. All statistical tests were performed with a two-sided Type I error level of 0.05.

[15] = test system: antigen-specific proliferative T cell response; assay type: in vivo, human; conditions: 2 mg SC daily 8 weeks; week 0 to week 20; Panama, New Caledonia, Victoria

CC/C=C/CC(=O)N[C@@H](Cc1ccc(O)cc1)C(=O)N[C@@H](C)C(=O)N[C@@H](CC(=O)O)C(=O)N[C@@H](C)C(=O)N[C@H](C(=O)N[C@@H](Cc1ccccc1)C(=O)N[C@H](C(=O)N[C@@H](CC(N)=O)C(=O)N[C@@H](CO)C(=O)N[C@@H](Cc1ccc(O)cc1)C(=O)N[C@@H](CCCNC(=N)N)C(=O)N[C@@H](CCCCN)C(=O)N[C@H](C(=O)N[C@@H](CC(C)C)C(=O)NCC(=O)N[C@@H](CCC(N)=O)C(=O)N[C@@H](CC(C)C)C(=O)N[C@@H](CO)C(=O)N[C@@H](C)C(=O)N[C@@H](CCCNC(=N)N)C(=O)N[C@@H](CCCCN)C(=O)N[C@@H](CC(C)C)C(=O)N[C@@H](CC(C)C)C(=O)N[C@@H](CCC(N)=O)C(=O)N[C@@H](CC(=O)O)C(=O)N[C@H](C(=O)N[C@@H](CCSC)C(=O)N[C@@H](CO)C(=O)N[C@@H](CCCNC(=N)N)C(=O)N[C@@H](CCC(N)=O)C(=O)N[C@@H](CCC(N)=O)C(=O)NCC(=O)N[C@@H](CCC(=O)O)C(=O)N[C@@H](CO)C(=O)N[C@@H](CC(N)=O)C(=O)N[C@@H](CCC(N)=O)C(=O)N[C@@H](CCC(=O)O)C(=O)N[C@@H](CCCNC(=N)N)C(=O)NCC(=O)N[C@@H](C)C(=O)N[C@@H](CCCNC(=N)N)C(=O)N[C@@H](C)C(=O)N[C@@H](CCCNC(=N)N)C(=O)N[C@@H](CC(C)C)C(N)=O)[C@@H](C)CC)C(C)C)[C@@H](C)O)[C@@H](C)CC [TH9507, (hexenoyl trans-3)hGRF(1-44)NH2]
NTX, Δ ([1]; 1 mg SC QD): 4.5 (24.9) nMBCE/mM
Osteocalcin, Δ ([1]; 1 mg SC QD): 1.5 (4.8) ng/mL
NTX ([1]; 2 mg SC QD, 12 weeks): no changes
Osteocalcin within group ([1]; 2 mg SC QD, 12 weeks): increased significantly
NTX, Δ ([1]; 2 mg SC QD): −0.5 (27.7) nMBCE/mM
Osteocalcin, Δ ([1]; 2 mg SC QD): 3.0 (2.8)* ng/mL
IGF-I (IGF-1 [2]): increase IGF-I to the physiological range seen in younger adults
IGF-1 levels (IGF-1 [3]): dose-related increase
CD4, Δ ([4]; 1 mg SC QD): 24.4 (147.41) cells/mm^3
CD4, Δ ([4]; 2 mg SC QD): −23.2 (70.7) cells/mm^3
CD4 count and viral load ([4]; in vivo): did not change
overall glycemic control [5]: not shown to aggravate overall glycemic control
percentage of subjects with protective antibody level ([6]; Panama and New Caledonia strains): No statistical difference
proportion of patients achieving a protective antibody level vs placebo ([6]; Victoria antigen, statistically significant at 2 mg, weeks 6-20): increased
Fasting Glucose, Δ ([7]; 1 mg SC QD): 0.1 (0.5) mmol/L
Fasting Insulin, Δ ([7]; 1 mg SC QD): −2.8 (27.6) mUI/L
HBA1c, Δ ([7]; 1 mg SC QD): 0.2 (0.4)* %
HOMA-R, Δ ([7]; 1 mg SC QD): 0.8 (7.0)
Two hour glucose, Δ ([7]; 1 mg SC QD): 0.1 (2.1) mmol/L
Fasting Glucose, Δ ([7]; 2 mg SC QD): 0.1 (0.7) mmol/L
Fasting Insulin, Δ ([7]; 2 mg SC QD): 7.4 (6.2) mUI/L
HBA1c, Δ ([7]; 2 mg SC QD): −0.0 (0.5) %
HOMA-R, Δ ([7]; 2 mg SC QD): 2.0 (1.6)
Two hour glucose, Δ ([7]; 2 mg SC QD): 0.7 (1.7) mmol/L
IGF-1, Δ (IGF-1 and IGFBP-3 [8]; 1 mg SC QD): 87 (67) ng/mL and 87.5 (66.9)* ng/mL
IGFBP-3, Δ (IGF-1 and IGFBP-3 [8]; 1 mg SC QD): 0.6 (0.7)* Mg/L
IGF-1, Δ (IGF-1 and IGFBP-3 [8]; 2 mg SC QD): 123 (79) ng/mL and 122.6 (79.1)* ng/mL
IGFBP-3, Δ (IGF-1 and IGFBP-3 [8]; 2 mg SC QD): 0.6 (0.5)* Mg/L
Circulating IGF-1 level vs placebo (IGF-1 and IGFBP-3 [9]; 0.1 mg): did not affect
Circulating IGFBP-3 level vs placebo (IGF-1 and IGFBP-3 [9]; 0.1 mg): did not affect
Circulating IGF-1 level vs placebo (IGF-1 and IGFBP-3 [9]; 1 mg): significantly increased
Circulating IGFBP-3 level vs placebo (IGF-1 and IGFBP-3 [9]; 1 mg): significantly increased
Chol:HDL, Δ ([10]; 1 mg SC QD): −0.3 (0.6)
HDL, Δ ([10]; 1 mg SC QD): 0.0 (0.2) mmol/L
LDL, Δ ([10]; 1 mg SC QD): 0.1 (0.8) mmol/L
NONHDL Cholesterol, Δ ([10]; 1 mg SC QD): −0.4 (1.5) mmol/L
Total Cholesterol, Δ ([10]; 1 mg SC QD): −0.4 (1.7) mmol/L
Triglycerides, Δ ([10]; 1 mg SC QD): −1.1 (4.4) mEq/L
Triglyceride levels change ([10]; 1 mg SC QD): −0.9 (4.2)
ratio of cholesterol to HDL change ([10]; 1 mg SC QD): −0.3 (0.7)
Chol:HDL, Δ ([10]; 2 mg SC QD): −0.3 (0.7)
HDL, Δ ([10]; 2 mg SC QD): 0.1 (0.1)* mmol/L
LDL, Δ ([10]; 2 mg SC QD): 0.2 (0.7) mmol/L
NONHDL Cholesterol, Δ ([10]; 2 mg SC QD): −0.1 (0.7) mmol/L
Total Cholesterol, Δ ([10]; 2 mg SC QD): −0.1 (0.8) mmol/L
Triglycerides, Δ ([10]; 2 mg SC QD): −0.9 (1.3)* mEq/L
Triglyceride levels change ([10]; 2 mg SC QD): −0.9 (1.2)
ratio of cholesterol to HDL change ([10]; 2 mg SC QD): −0.3 (0.6)
Cmax and AUC parameters ([11]; 0.5, 1, 2 mg SC): increased in function of the dose administered
half-life ([11]; male, human, in vivo, SC, healthy men): 2 to 5 h
Mean Reaction Time of the CPT, decrease from baseline ([12]; 0.1 mg SC daily at bedtime, baseline to day 9): 45.85 ms
Mean Reaction Time of the CPT vs placebo ([12]; 1 mg SC daily at bedtime): No significant effect
IGF-1 increase over baseline values (IGF-1 [13]; 0.5 mg SC once a day): 37%
time at which IGF-1 plateau was reached (IGF-1 [13]; 1 mg): 4 days
IGF-1 increase over baseline values (IGF-1 [13]; 1 mg SC once a day): 89%
IGF-1 levels reached (IGF-1 [13]; 1 mg SC once a day): 286 ± 25 ng/mL
time at which IGF-1 plateau was reached (IGF-1 [13]; 2 mg): 6 days
IGF-1 increase over baseline values (IGF-1 [13]; 2 mg SC once a day): 106%
IGF-1 levels reached (IGF-1 [13]; 2 mg SC once a day): 284 ± 55 ng/mL
IGF-1 levels of individual subjects (IGF-1 [13]; none of the subjects greater than this level): ≤ 400 ng/mL
Visceral fat (VAT) change ([14]; 1 mg SC QD, 12 weeks): −3.6%
SAT, Δ ([14]; 1 mg SC QD): 6.8 (21.2) cm^2
VAT, Δ ([14]; 1 mg SC QD): −11.9 (28.7) cm^2
Visceral fat (VAT) change ([14]; 2 mg SC QD, 12 weeks): −15.7%
SAT, Δ ([14]; 2 mg SC QD): 4.4 (19.8) cm^2
VAT, Δ ([14]; 2 mg SC QD): −21.5 (27.9)* cm^2
Visceral fat decrease within group ([14]; 2 mg, over 3 months): more than 15%
subcutaneous fat (SAT) ([14]; 1 and 2 mg SC QD, 12 weeks, between or within groups): preserved; also recorded: did not change significantly
mean AUC of antigen-specific proliferative T cell response vs placebo [15]: statistically higher
